This note sets out measurements from patent publication US20060079677A1, “Novel tricyclic azepine derivatives, method for production thereof and pharmaceutical compositions comprising the same” (priority 2003, published 2006).

The subject of test [1] is L1210 cells. Description: Action on the cell cycle. It counts as cell-based, murine. Particulars: 25 nM, after 21 hours (untreated cells: 20%). As for the experimental part:
L1210 cells are incubated for 21 hours at 37° C. in the presence of various concentrations of test compounds. The cells are then fixed using 70% ethanol (v/v), washed twice in PBS and incubated for 30 minutes at 20° C. in PBS that contains 100 μg/ml of RNAse and 50 μg/ml of propidium iodide. The results are expressed as a percentage of the cells that have accumulated in the G2+M phases after 21 hours compared with the control.

The subject of test [2] is KB-A1 resistant line (multi-drug resistance induced using adriamycin). Put plainly: In vitro cytotoxicity, Microculture Tetrazolium Assay. In kind it is cell-based, human. As for the experimental part: (§1) Five cell lines were used: • 1 murine leukaemia, L1210, • 1 non-small-cell human lung carcinoma, A549, • 1 human epidermoid carcinoma, KB-3-1, and the corresponding resistant line, KB-A1, whose multi-drug resistance was induced using adriamycin (ADR), • 1 human colon carcinoma, HT29.
(§2) The cells are cultured in RPMI 1640 complete culture medium comprising 10% foetal calf serum, 2 mM glutamine, 50 units/ml of penicillin, 50 μg/ml of streptomycin and 10 mM Hepes, pH 7.4. The cells are distributed on microplates and are exposed to the cytotoxic compounds. The cells are then incubated for 2 days (L1210) or 4 days (A549, KB-A1, KB-3-1, HT29). The number of viable cells is then quantified by a colorimetric assay, the Microculture Tetrazolium Assay (Cancer Res. 1987, 47, 936-942).
(§3) The results are expressed as IC50, the concentration of cytotoxic agent that inhibits the proliferation of the treated cells by 50%.

The subject of test [3] is KB-3-1 human epidermoid carcinoma. The description is as above. In kind it is cell-based. Particulars: 96 h, KB-3-1, incubated 4 days, inhibition of proliferation by 50%. As for the experimental part: as §1, §2, §3
In test [4] the test system is A549 non-small-cell human lung carcinoma. The description is as above. Particulars: 96 h, A549, incubated 4 days, inhibition of proliferation by 50%. It counts as cell-based. The protocol: as §1, §2, §3
The subject of test [5] is HT29 human colon carcinoma. Described as above. It counts as cell-based. Particulars: HT-29, 96 h, HT29, incubated 4 days, inhibition of proliferation by 50%. The protocol:
as §1, §2, §3

Test [6] relates to L1210 murine leukaemia. The test is described as above. Particulars: Mus musculus, 48 h; L1210, incubated 2 days, inhibition of proliferation by 50%. It counts as cell-based. The protocol: as §1, §2, §3

Consider `COc1ccc(CCN2C=CC=C3C2=Nc2ccccc2OS3(=O)=O)cc1` [Example 42, 1-[2-(4-Methoxyphenyl)ethyl]-1H-pyrido[3,2-c][1,2,5]benzoxathiazepine 5,5-dioxide], for which the “percentage of the cells accumulated in the G2+M phases” value in test [1] was 80-90%. The IC50 – broadly, the concentration at which inhibition is half-maximal – in test [2] (Homo sapiens, 96 h, KB-A1, incubated 4 days, inhibition of proliferation by 50%) was determined as 13.3 nM; in test [3] it was 15.6 nM; in test [4], 11.3 nM; in test [5] it was 9.8 nM; in test [6], 8.2 nM. Also, the “recognition by P-glycoprotein (resistant line KB-A1 versus sensitive line KB-3-1)” value in test [2] (KB-A1 as sensitive as KB-3-1) was “not recognised by P-glycoprotein”.
